Results: ChEMBL document CHEMBL1145099, “Aloisines, a new family of CDK/GSK-3 inhibitors. SAR study, crystal structure in complex with CDK2, enzyme selectivity, and cellular effects” (J Med Chem, 2003)

Columns and labels:
[1] = molecular target: Cyclin-dependent kinase 2/cyclin E (Homo sapiens, UniProt P24941); test: Inhibition of Cyclin-dependent kinase 2-cyclin E; format: protein-complex assay
Casein kinase I = test: Inhibition of Casein kinase I; format: protein assay
Casein kinase II = Casein kinase II (Homo sapiens, UniProt P19784+P67870+P68400); test: Inhibition of Casein kinase II; format: protein-complex assay
Sequence of Casein kinase II (P67870 whole entry): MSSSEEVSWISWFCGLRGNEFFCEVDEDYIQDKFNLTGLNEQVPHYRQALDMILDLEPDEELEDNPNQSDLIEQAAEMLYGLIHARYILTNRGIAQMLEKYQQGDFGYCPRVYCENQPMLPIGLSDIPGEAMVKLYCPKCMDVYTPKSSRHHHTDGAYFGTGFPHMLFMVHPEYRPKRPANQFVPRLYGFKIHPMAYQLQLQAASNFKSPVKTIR
Sequence of Casein kinase II (P68400 whole entry): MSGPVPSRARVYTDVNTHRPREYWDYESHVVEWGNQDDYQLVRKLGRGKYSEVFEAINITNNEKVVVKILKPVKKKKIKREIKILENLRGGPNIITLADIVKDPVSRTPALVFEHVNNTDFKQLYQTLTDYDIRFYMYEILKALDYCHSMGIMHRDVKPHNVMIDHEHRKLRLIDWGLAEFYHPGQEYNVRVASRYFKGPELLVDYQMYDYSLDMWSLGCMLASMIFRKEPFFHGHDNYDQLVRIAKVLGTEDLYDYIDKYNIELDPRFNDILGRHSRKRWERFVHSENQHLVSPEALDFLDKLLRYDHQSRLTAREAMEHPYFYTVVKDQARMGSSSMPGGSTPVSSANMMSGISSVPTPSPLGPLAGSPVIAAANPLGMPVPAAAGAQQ
Sequence of Casein kinase II (P19784 whole entry): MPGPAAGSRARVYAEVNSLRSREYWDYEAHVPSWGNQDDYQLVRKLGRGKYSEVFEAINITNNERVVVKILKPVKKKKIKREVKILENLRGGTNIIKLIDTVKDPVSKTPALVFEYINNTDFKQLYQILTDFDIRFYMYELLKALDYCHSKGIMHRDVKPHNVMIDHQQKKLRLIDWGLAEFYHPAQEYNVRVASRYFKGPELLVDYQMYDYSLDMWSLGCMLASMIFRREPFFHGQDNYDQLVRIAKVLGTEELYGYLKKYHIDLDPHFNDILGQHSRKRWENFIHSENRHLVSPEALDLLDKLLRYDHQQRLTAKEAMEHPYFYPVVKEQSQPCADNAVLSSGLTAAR

[2] = molecular target: Cyclin-dependent kinase 2/cyclin A (Homo sapiens, UniProt P24941); test: Inhibition of Cyclin-dependent kinase 2-cyclin A; format: protein-complex assay
[3] = molecular target: Cyclin-dependent kinase 4/cyclin D1 (Homo sapiens, UniProt P11802); test: Inhibition of Cyclin-dependent kinase 4-cyclin D1
Sequence of Cyclin-dependent kinase 4/cyclin D1 (P11802 whole entry): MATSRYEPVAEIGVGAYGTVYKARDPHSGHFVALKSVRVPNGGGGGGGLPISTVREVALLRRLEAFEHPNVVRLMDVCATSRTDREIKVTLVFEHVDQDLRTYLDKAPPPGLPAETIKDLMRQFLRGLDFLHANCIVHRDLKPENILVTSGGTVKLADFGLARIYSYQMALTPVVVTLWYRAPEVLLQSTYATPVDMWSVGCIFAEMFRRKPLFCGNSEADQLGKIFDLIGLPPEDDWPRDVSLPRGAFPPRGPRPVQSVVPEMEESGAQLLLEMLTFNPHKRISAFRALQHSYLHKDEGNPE
Sequence of Cyclin-dependent kinase 4/cyclin D1 (P24385 whole entry, further chain): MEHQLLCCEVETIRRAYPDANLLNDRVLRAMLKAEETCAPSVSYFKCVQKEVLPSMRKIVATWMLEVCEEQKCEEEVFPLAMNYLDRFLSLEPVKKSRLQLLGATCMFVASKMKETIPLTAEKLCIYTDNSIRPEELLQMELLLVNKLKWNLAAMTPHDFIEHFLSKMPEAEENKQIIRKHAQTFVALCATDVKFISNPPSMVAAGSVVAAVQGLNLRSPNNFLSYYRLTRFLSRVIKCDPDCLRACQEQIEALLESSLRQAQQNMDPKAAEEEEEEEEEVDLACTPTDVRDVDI

[4] = molecular target: Dual specificity mitogen-activated protein kinase kinase; MEK1/2 (Homo sapiens, UniProt P36507+Q02750); test: Inhibition of Mitogen activated protein kinase kinase; format: protein assay
[5] = molecular target: Protein kinase C beta type (Homo sapiens, UniProt P05771); test: Inhibition of Protein kinase C beta
Sequence of Protein kinase C beta type (P05771 whole entry): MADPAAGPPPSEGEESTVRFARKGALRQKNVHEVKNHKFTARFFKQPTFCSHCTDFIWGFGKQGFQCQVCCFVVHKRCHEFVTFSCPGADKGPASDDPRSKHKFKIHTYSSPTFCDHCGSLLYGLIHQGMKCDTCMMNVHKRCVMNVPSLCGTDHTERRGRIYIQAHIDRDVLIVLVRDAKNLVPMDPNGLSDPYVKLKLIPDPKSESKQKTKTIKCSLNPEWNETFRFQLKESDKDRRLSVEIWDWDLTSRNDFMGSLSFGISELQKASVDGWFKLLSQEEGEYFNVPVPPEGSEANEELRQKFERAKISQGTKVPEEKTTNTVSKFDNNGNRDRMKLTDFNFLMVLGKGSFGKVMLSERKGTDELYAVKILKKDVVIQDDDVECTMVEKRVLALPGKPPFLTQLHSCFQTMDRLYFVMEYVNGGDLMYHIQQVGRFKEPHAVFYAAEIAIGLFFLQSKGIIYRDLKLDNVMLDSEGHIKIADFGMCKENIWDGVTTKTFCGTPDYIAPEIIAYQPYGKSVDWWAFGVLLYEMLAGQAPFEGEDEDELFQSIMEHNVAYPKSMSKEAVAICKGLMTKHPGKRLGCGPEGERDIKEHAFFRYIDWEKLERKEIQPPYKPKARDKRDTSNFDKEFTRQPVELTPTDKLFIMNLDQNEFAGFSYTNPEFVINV

[6] = molecular target: Protein kinase C alpha type (Homo sapiens, UniProt P17252); test: Inhibition of protein kinase C alpha
[7] = molecular target: Protein kinase C delta type (Homo sapiens, UniProt Q05655); test: Inhibition of protein kinase C delta
[8] = molecular target: Serine/threonine-protein kinase pim-1 (Homo sapiens, UniProt P11309); test: Inhibition of Protein kinase PIM-1
Sequence of Serine/threonine-protein kinase pim-1 (P11309 whole entry): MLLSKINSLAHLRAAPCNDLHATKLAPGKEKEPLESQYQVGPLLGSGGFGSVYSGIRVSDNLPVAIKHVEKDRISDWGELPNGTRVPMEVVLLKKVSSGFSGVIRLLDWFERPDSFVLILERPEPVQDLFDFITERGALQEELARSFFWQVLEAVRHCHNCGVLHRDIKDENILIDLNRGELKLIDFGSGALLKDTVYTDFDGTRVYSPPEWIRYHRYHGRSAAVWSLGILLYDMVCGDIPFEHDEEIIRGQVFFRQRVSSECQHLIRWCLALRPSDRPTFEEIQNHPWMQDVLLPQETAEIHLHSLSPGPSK

[9] = molecular target: T1, Protein kinase C zeta type (Homo sapiens, UniProt Q05513); test: Inhibition of protein kinase C zeta
T1 sequence (Q05513 whole entry): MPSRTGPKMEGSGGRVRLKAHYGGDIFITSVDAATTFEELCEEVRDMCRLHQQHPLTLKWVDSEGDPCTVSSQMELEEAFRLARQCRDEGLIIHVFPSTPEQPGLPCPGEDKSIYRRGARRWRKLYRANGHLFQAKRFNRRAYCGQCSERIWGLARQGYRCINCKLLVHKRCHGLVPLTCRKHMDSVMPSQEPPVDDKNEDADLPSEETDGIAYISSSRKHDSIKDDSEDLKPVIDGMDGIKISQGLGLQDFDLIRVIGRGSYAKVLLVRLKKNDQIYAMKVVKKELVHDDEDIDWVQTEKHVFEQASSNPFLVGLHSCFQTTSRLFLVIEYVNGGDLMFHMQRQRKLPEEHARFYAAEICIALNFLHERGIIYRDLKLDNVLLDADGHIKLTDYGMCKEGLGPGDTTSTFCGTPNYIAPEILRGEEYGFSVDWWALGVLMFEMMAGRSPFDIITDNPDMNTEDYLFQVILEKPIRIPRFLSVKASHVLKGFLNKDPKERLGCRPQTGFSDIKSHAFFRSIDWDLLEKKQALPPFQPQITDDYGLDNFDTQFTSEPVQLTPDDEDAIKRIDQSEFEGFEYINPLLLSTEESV

[10] = molecular target: T2, Protein kinase C epsilon type (Homo sapiens, UniProt Q02156); test: Inhibition of protein kinase C epsilon
T2 sequence (Q02156 whole entry): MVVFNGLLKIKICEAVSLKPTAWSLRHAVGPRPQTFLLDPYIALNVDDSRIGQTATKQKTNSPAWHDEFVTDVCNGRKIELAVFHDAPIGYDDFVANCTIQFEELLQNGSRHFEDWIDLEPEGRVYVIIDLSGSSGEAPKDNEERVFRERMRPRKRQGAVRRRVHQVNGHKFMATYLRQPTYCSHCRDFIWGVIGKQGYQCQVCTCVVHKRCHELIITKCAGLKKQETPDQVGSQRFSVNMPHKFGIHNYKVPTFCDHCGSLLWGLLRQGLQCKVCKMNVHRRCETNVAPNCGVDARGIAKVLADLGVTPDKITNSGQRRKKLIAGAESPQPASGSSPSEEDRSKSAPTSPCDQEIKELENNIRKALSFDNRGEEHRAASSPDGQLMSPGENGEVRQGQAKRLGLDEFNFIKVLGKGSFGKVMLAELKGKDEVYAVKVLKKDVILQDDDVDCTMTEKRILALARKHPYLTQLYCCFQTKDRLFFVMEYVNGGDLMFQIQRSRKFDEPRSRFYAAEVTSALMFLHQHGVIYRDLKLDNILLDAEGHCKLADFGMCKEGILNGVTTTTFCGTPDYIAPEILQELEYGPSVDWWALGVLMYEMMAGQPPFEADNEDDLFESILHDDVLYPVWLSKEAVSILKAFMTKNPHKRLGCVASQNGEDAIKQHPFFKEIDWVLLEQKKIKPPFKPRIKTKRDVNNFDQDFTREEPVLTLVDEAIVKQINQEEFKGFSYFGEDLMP

[11] = molecular target: Protein kinase C gamma type (Homo sapiens, UniProt P05129); test: Inhibition of Protein kinase C gamma
[12] = molecular target: T3, Serine/threonine-protein kinase D1 (Homo sapiens, UniProt Q15139); test: Inhibition of Protein kinase C mu
T3 sequence (Q15139 whole entry): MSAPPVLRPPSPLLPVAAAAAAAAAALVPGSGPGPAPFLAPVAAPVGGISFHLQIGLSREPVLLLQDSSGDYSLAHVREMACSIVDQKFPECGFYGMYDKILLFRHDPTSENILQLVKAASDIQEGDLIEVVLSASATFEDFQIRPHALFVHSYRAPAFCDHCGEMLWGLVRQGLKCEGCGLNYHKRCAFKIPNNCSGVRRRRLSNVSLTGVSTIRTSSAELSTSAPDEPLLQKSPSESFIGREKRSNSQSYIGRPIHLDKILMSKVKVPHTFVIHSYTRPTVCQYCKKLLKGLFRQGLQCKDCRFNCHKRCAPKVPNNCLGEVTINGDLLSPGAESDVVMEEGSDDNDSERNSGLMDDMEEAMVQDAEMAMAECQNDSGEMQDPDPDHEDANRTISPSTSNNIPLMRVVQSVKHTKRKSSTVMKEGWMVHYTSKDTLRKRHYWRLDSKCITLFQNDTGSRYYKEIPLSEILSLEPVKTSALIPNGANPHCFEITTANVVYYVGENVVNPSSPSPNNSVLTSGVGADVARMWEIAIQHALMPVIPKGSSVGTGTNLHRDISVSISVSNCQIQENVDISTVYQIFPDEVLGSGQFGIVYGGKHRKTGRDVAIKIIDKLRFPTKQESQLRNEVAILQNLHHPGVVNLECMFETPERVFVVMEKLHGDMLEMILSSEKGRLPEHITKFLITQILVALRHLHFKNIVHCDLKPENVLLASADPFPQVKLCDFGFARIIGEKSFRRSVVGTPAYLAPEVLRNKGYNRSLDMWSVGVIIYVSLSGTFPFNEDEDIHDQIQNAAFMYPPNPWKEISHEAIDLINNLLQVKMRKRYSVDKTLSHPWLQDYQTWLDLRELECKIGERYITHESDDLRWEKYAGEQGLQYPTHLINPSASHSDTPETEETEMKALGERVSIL

[13] = molecular target: RAF proto-oncogene serine/threonine-protein kinase (Homo sapiens, UniProt P04049); test: Inhibition of RAF proto-oncogene serine/threonine-protein kinase (c-raf)
Sequence of RAF proto-oncogene serine/threonine-protein kinase (P04049 whole entry): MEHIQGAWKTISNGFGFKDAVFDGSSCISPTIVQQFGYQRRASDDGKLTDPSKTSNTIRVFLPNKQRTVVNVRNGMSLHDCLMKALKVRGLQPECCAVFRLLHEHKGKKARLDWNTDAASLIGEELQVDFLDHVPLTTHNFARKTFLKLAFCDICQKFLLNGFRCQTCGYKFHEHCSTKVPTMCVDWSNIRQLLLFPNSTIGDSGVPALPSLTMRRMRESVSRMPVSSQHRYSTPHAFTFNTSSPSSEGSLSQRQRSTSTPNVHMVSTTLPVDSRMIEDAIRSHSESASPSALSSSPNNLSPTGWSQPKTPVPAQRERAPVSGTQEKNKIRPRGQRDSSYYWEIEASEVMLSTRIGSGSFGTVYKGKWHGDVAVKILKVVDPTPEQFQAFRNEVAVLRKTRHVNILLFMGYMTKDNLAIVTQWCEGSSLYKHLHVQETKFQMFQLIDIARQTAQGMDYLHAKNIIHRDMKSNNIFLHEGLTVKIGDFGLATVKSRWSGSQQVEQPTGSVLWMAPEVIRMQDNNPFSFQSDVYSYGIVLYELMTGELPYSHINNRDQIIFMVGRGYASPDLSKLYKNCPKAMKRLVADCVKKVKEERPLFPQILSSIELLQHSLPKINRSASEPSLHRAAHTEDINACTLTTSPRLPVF

[14] = molecular target: c-Jun N-terminal kinase, JNK (Homo sapiens, UniProt P45983+P53779+P45984); test: Inhibition of c-Jun N-terminal kinase; format: protein assay
[15] = Inhibition of cAMP dependent protein kinase, PKA
[16] = Inhibition of cGMP-dependent protein kinase

## CCCCc1c(-c2ccc(O)cc2)[nH]c2nccnc12 [ALOISINE A]
[1]
  IC50: 0.4 µM
Casein kinase I
  IC50: > 100 µM
Casein kinase II
  IC50: > 100 µM
[2]
  IC50: 0.12 µM
[3]
  IC50: > 100 µM
[4]
  IC50: > 100 µM
[5]
  IC50: > 100 µM
[6]
  IC50: > 100 µM
[7]
  IC50: > 100 µM
[8]
  IC50: > 10 µM
[9]
  IC50: > 100 µM
[10]
  IC50: > 100 µM
[11]
  IC50: > 100 µM
[12]
  IC50: > 100 µM
[13]
  IC50: > 100 µM
[14]
  IC50: 3.3 µM
[15]
  IC50: 100 µM
[16]
  IC50: 100 µM
